Literature values as cited in patent publication US12290493B2 (Advanced Respiratory Technologies, Inc., priority 2017, dated 2025).

Experiments:
[1] = test system: beta adrenergic receptors
[2] = fraction of the l-epinephrine effect

**Q.** For `CNCC(=O)c1ccc(O)c(O)c1` [adrenalone], which beta adrenergic activity [1] is on record?
**A.** The beta adrenergic activity was “little if any beta adrenergic activity”.

**Q.** Which “pressor effect relative to that of l-epinephrine” value [2] does the source give for `CNC[C@H](O)c1ccc(O)c(O)c1` [d-epinephrine] here?
**A.** The value was “about one-fifteenth”.
